The test system of the experiment is Human primary T cells. As to the kind of experiment: IL-2 ELISA, Human Primary T Cell, Anti-CD3+CD28+ (Example 3). The experiment is classed as cell-based. Particulars: anti-CD3+CD28 stimulation. The procedure:
Human primary T cell isolation and culture: Human primary T cells were prepared as follows. […] The cells at the serum:ficoll interface were recovered and washed twice with 5 volumes of PBS. […] The primary T-cells were then washed twice with PBS to remove the IL-2.
Primary T cell stimulation and IL2 ELISA: Human primary T cells (100,000 cells per well) were pre-incubated with or without test compound in Yssel's medium for 1 hr at 37° C. Cells were then stimulated by transferring them to round-bottom 96-well plates pre-coated with 1 ug/ml αCD3 and 5 μg/ml αCD28. For counter assay, cells were instead stimulated by adding 8× stock solutions of PMA and ionomycin in Yssels (for final concentrations of 0.5 ng/ml PMA and 0.1 uM ionomycin, both from Calbiochem).
Background: ELISA stands for enzyme-linked immunosorbent assay.

A word on the IC50: it is the concentration that gives 50% inhibition.

As to `CN1C(C)(C)CC(Nc2nc(Nc3ccc(F)c(-c4cnn(C)c4)c3)ncc2F)CC1(C)C` [Compound I-182], it took 0.675 µM to reach half-maximal inhibition (24 hours) (IC50).

Take `CCn1c(=O)oc2ccc(Nc3ncc(F)c(NC4CC(C)(C)NC(C)(C)C4)n3)cc21` [II-174]: half-maximal inhibition (Homo sapiens, T-cell, 24 h) (IC50) required 2.94 µM. Same read-out and setting: with `COC(=O)CCN1C(C)(C)CC(Nc2nc(Nc3ccc4c(c3)OCCO4)ncc2F)CC1(C)C` [II-10] the figure was 7.24 µM; with `CN1C(C)(C)CC(Nc2nc(Nc3cc4c(cc3F)OC(F)(F)O4)ncc2F)CC1(C)C` [II-176], 2.14 µM. Compound `Cc1nnnn1-c1cccc(Nc2ncc(F)c(NC3CC(C)(C)NC(C)(C)C3)n2)c1` [Compound I-414] had an IC50 (24 hours) of 0.16 µM. On the same count and under the same terms, with `CN1CCN(c2ccc(Nc3ncc(F)c(NC4CCC(C)(C)N(C)C(C)(C)C4)n3)cc2C(F)(F)F)CC1` (centres unmarked) [Compound I-270, 5-Fluoro-N2-[4-methylpiperizine-3-trifluoromethyl]phenyl-N4-(1,2,2,7,7-pentamethylazepan-4-yl)-2,4-pyrimidinediamine] the figure was 3.45 µM.

Where the note is “Homo sapiens, T-cell, 24 h”, `CN1C(C)(C)CC(Nc2nc(Nc3nnc(C(F)(F)F)s3)ncc2F)CC1(C)C` [II-13] had an IC50 of 11.2 µM.

As for `COc1ccc(Nc2ncc(F)c(NC3CC(C)(C)N(C)C(C)(C)C3)n2)cc1OCC(=O)NC1CC1` [Compound I-412], the IC50 (24 hours) amounted to 6.55 µM. As for `CN1C(C)(C)CC(Nc2nc(Nc3nc(-c4ccc(Cl)cc4)cs3)ncc2F)CC1(C)C` [II-15], under “Homo sapiens, T-cell, 24 h”, the half-maximal inhibitory concentration (IC50) stood at 0.835 µM. For the compound `COc1ccc(Nc2ncc(F)c(NC3CC(C)(C)N(C)C(C)(C)C3)n2)cc1OC(F)F` [Compound I-359], the IC50 (24 hours, citrate salt) stood at 0.118 µM. Under “Homo sapiens, T-cell, 24 h”, `COc1cc(Nc2ncc(F)c(NC3CC(C)(C)NC(C)(C)C3)n2)cc(OCCN2CCCC2)c1` [Compound I-435] registered a half-inhibitory concentration (IC50) of 0.55 µM. Still for that read-out and setting: for `CN1C(C)(C)CC(Nc2nc(Nc3ccc(-c4ccc(N5CCOCC5)nc4)c(C#N)c3)ncc2F)CC1(C)C` [Compound I-427] the value was 0.66 µM. On to `CC(=O)N1CCN(c2cc(Nc3ncc(F)c(NC4CC(C)(C)N(C)C(C)(C)C4)n3)ccc2C(F)(F)F)CC1` [Compound I-212], for which the IC50 (24 hours) came to 0.445 µM. As to `CN1C(C)(C)CC(Nc2nc(Nc3ccc(OCC(N)=O)cc3)ncc2F)CC1(C)C` [Compound I-134], half-maximal inhibition (24 hours) (IC50) required 2.43 µM. Same read-out and setting: with `CC1(C)CC(Nc2nc(Nc3cccc(-n4cnnn4)c3)ncc2C#N)CC(C)(C)N1` [Compound I-393] the figure was 0.43 µM. In the case of `Cc1cc(NC2CC(C)(C)N(C)C(C)(C)C2)nc(Nc2ccc(N3CCN(S(C)(=O)=O)CC3)c(Cl)c2)n1` [IV-3], for the setting “Homo sapiens, T-cell, 24 h”, 4.39 µM corresponded to half-maximal inhibition (IC50).

On to `CC(C)OC(=O)Nc1ccc(Nc2ncc(F)c(NC3CC(C)(C)N(C)C(C)(C)C3)n2)cc1` [Compound I-137], for which the IC50 (24 hours) came to 1.64 µM. Where the note is “Homo sapiens, T-cell, 24 h”, `CN1C(C)(C)CC(Nc2nc(Nc3ccc4c(c3)CC(=O)NO4)ncc2F)CC1(C)C` [II-3] came in with an IC50 of 1.85 µM. `CN1C(C)(C)CC(Nc2nc(Nc3ccc(-n4cccc4)c(C#N)c3)ncc2C#N)CC1(C)C` [Compound I-206] showed a half-maximal inhibitory concentration (IC50) (24 hours) of 1.03 µM. For `CN1C(=O)C(C)(C)Oc2cc(Nc3ncc(F)c(NC4CC(C)(C)N(C)C(C)(C)C4)n3)cnc21` [II-54], for the setting “Homo sapiens, T-cell, 24 h”, the midpoint of inhibition, the IC50, lay at 0.373 µM. Where the note is “24 hours”, `CN1C(C)(C)CC(Nc2nc(Nc3cc(-c4cccnc4)cc(C(F)(F)F)c3)ncc2F)CC1(C)C` [Compound I-202] had an IC50 of 0.615 µM. Turning to `COc1ccc(Nc2nccc(NC3CC(C)(C)N(C)C(C)(C)C3)n2)cc1Cl` [Compound I-226], half-maximal inhibition (24 hours) (IC50) was put at 1.14 µM.

With `CCCN1CCN(c2cc(Nc3ncc(F)c(NC4CC(C)(C)N(C)C(C)(C)C4)n3)ccc2Cl)CC1` [Compound I-56], for the setting “24 hours”, 2.38 µM corresponded to half-maximal inhibition (IC50). For the setting “Homo sapiens, T-cell, 24 h”, `CCn1c(=O)oc2cc(Nc3ncc(F)c(NC4CC(C)(C)N(C)C(C)(C)C4)n3)ccc21` [II-46] came in with a half-maximal inhibitory concentration (IC50) of 0.391 µM. Same read-out and setting: with `CN1C(C)(C)CC(Nc2nc(Nc3ccc4c(c3)oc(=O)n4CCF)ncc2F)CC1(C)C` [II-172] the figure was 0.75 µM.

The compound `COc1ccc(Nc2ncc(F)c(NC3CC(C)(C)N(C)C(C)(C)C3)n2)cc1-c1cnn(C)c1` [Compound I-184] displayed an IC50 (24 hours) of 2.29 µM.
